Source: patent US20060173080A1, “Methods of modulating TNF using bupropion” (The Regents of the University of California, priority 2002, published 2006)
Counter-ions that a name gives are not always drawn.

What was measured:
[1] = system: TNF-alpha; assay: TNF level in patients with congestive heart failure before and on bupropion; type: in vivo, human; conditions: for TNF: NYSHA Class I CHF
Procedure: A person with NYSHA Class I CHF who started on bupropion for major depression. Their TNF before bupropion was 347 pg/ml and 5 pg/ml after two months on bupropion 150 mg twice a day (BID). […] In addition, a person with a history of two myocardial infarctions and NYSHA Class II CHF, who started on bupropion for major depression and desire to stop a 1.5 container/day chewing tobacco habit. Their TNF before starting bupropion was 433 pg/ml, and […] and then four weeks on bupropion 150 mg three times a day (TID). They subsequently stopped using tobacco and their depression is in remission. Finally, a person with NYSHA Class I CHF-TNF was 303 pg/ml before bupropion was started for depression and 7 pg/ml on 150 mg TID.

[2] = system: BALB/c mice; assay: LPS-induced shock model: survival and signs of endotoxemia after lethal LPS challenge; type: in vivo; conditions: for survival after lethal LPS challenge: mouse, in vivo, hydrochloride
Procedure: Male BALB/c mice were injected with 11, 33 or 100 mg/kg of bupropion or with placebo i.p. in saline 1 h before challenge with 600 μg of E. coli LPS (Sigma, St. Louis, Mo.) by i.p. route. Mice were sacrificed 90 min for detection of cytokines in the serum by sandwich ELISA. Values represent the means±SEM of 5 mice per group. * P<0.05.
BALB/c mice were injected intraperitoneally (i.p.) with bupropion or placebo 1 h prior to i.p. injection of LPS (600 ug/mouse).
Male, 6 weeks old BALB/c mice were used in LPS-induced shock experiments. All mice were raised and maintained at the animal facilities at the Goncalo Moniz Research Center-FIOCRUZ, and provided with rodent diet and water ad libitum. Animal numbers in experimental groups were the minimum necessary to permit statistical analysis. All animals were sacrificed under anaesthesia.
In some experiments, groups of mice received i.p. injection of propranolol (1 mg/Kg), SCH23390 (25 μg/kg) and sulpiride (25 mg/Kg) 1 h prior to injection of bupropion. […] To determine serum TNF, IL-1 beta and IL-10 levels, mice were sacrificed 90 min after injection of LPS and bled by axilar vein puncture. Levels of IFN-gamma and nitric oxide were assayed using sera of mice sacrificed 4 h after LPS injection. Platelet and leukocyte cell counts were performed using blood collected with EDTA after 4 h of LPS challenge, using an automated cell counter (ADVIA 60, Bayer).

[3] = system: TNF; conditions: Altschuler and Kast 2003; cited from earlier work
[4] = system: nitric oxide; assay: Serum nitrite (Griess reaction) as indicator of nitric oxide production in LPS-challenged mice; type: in vivo, BALB/c mice; conditions: bupropion i.p. 1 h before 600 μg LPS
Procedure: (§1) To study the immunomodulatory effects of bupropion we used a mouse model in which TNF production is induced by stimulation with lipopolysaccharide (LPS) (Bozza et al, The PACAP-type I receptor agonist maxadilan from sand fly saliva protects mice against lethal endotoxemia by a mechanism partially dependent on IL-10, Eur. J. Immunol. 28, 3120-3127, 1998). BALB/c mice were injected intraperitoneally (i.p.) with bupropion or placebo 1 h prior to i.p. injection of LPS (600 ug/mouse).
(§2) Male, 6 weeks old BALB/c mice were used in LPS-induced shock experiments. […]
(§3) TNF, IL-1beta, IFN-gamma and IL-10 concentrations in serum samples or in supernatants from macrophage cultures were determined by enzyme-linked immunosorbent assay (ELISA) using antibody pairs and recombinant cytokines from R&D systems (Minneapolis, Minn., USA), according to the manufacturer's instructions. After incubation with streptoavidin-peroxidase conjugate (Sigma), the reaction was developed using 3,3′, 5,5′-tetramethylbenzidine (TMB) peroxidase substrate and read at 450 nm. The serum concentration of nitrite (NO2−) was determined by the Griess reaction, as an indicator of nitric oxide production (Green et al., Analysis of nitrate nitrite and [^15N] nitrite in biological fluids. Anal. Biochem 126, 131-138, 1982). […] The absorbance of the reaction product at 540 nm was measured using an ELISA reader. […]

[5] = system: IL-10; assay: Serum IL-10 by ELISA in LPS-challenged mice; type: in vivo, BALB/c mice; conditions: bupropion 100 mg/kg i.p. 1 h before 600 μg LPS i.p., serum 90 min after LPS, hydrochloride
Procedure: as §1, §2, §3

CC(NC(C)(C)C)C(=O)c1cccc(Cl)c1 (racemic) [bupropion, (.±.)-1-(3-chlorophenyl)-2-[(1,1-dimethylethyl)amino]-1-propanone hydrochloride]
maintenance of low TNF ([1]; person two on bupropion): maintained for more than a year
TNF ([1]; person two, on bupropion 150 mg TID, 303 pg/ml before): 7 pg/mL
TNF ([1]; person, after two months on bupropion 150 mg BID, 347 pg/ml before): 5 pg/mL
change of TNF-alpha on bupropion ([1]; three patients with CHF): dropped profoundly
signs of endotoxemia (diarrhea, immobility, lethargy, piloerection, shivering) ([2]; bupropion 100 mg/kg, compared with placebo): milder or absent
survival after lethal LPS challenge [2]: protects mice
survival after lethal LPS challenge ([2]; listed as bupropion hydrochloride): increased survival rates
survival after lethal LPS challenge ([2]; listed as buproprion): significantly increased the survival time
circulating TNF levels [3]: lowers
nitric oxide level compared with placebo [4]: decreased with a trend toward significance
production of nitric oxide, reduction compared to placebo treated mice ([4]; serum 4 h after LPS): about four-fold
serum IL-10 level compared with placebo [5]: significantly raised
serum IL-10 level compared with placebo ([5]; listed as Bupropion): significantly increased
